Measurements from PubChem BioAssay (NCI).
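All cell lines were grown in 96-well plates and treated with compound for 48 hours. Abbreviation: GI50, concentration required for 50% inhibition of growth. The concentration for full growth arrest is given as TGI.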

Legend:
Experiment in all cases: DTP human tumour cell line panel, 48 h
BT-549 breast = test system: BT-549 breast
NCI-H460 lung = test system: NCI-H460 lung
A498 renal = test system: A498 renal
DU-145 prostate = test system: DU-145 prostate
NCI-H23 lung = test system: NCI-H23 lung
A549 NSCLC = test system: A549 NSCLC
HCC-2998 colon = test system: HCC-2998 colon
SNB-19 CNS = test system: SNB-19 CNS
OVCAR-4 ovarian = test system: OVCAR-4 ovarian
SF-295 CNS = test system: SF-295 CNS
M14 melanoma = test system: M14 melanoma
SK-MEL-28 melanoma = test system: SK-MEL-28 melanoma
LOX IMVI melanoma = test system: LOX IMVI melanoma
COLO 205 colon = test system: COLO 205 colon
SNB-75 CNS = test system: SNB-75 CNS
OVCAR-3 ovarian = test system: OVCAR-3 ovarian
CAKI-1 renal = test system: CAKI-1 renal
HOP-92 NSCLC = test system: HOP-92 NSCLC
EKVX NSCLC = test system: EKVX NSCLC
HS 578T breast = test system: HS 578T breast
OVCAR-5 ovarian = test system: OVCAR-5 ovarian
NCI-H522 lung = test system: NCI-H522 lung
UO-31 renal = test system: UO-31 renal
SR leukemia = test system: SR leukemia
PC-3 prostate = test system: PC-3 prostate
ACHN renal = test system: ACHN renal
NCI-H226 lung = test system: NCI-H226 lung

`CCOC(=O)/C=C/C1=C(c2csc3ccccc23)c2ccccc2CC1` was tested, and the TGI (BT-549 breast) was > 100 µM, the GI50 (NCI-H460 lung) was 37.5 µM and the TGI (NCI-H460 lung) was > 100 µM. For the same compound, the GI50 (A498 renal) was 55.4 µM, the TGI (A498 renal) was > 100 µM and the GI50 (DU-145 prostate) was 54.9 µM. The TGI (DU-145 prostate) was > 100 µM, the GI50 (NCI-H23 lung) was > 100 µM and the TGI (NCI-H23 lung) was > 100 µM. The GI50 (A549 NSCLC) was 31.1 µM, the TGI (A549 NSCLC) was > 100 µM and the GI50 (HCC-2998 colon) was 55.5 µM. The TGI (HCC-2998 colon) was > 100 µM, the GI50 (SNB-19 CNS) was 21.3 µM and the TGI (SNB-19 CNS) was 80.9 µM. It also gave a GI50 (OVCAR-4 ovarian) of 11.6 µM, a TGI (OVCAR-4 ovarian) of 48.8 µM and a GI50 (SF-295 CNS) of 18.4 µM. For the same compound, the TGI (SF-295 CNS) was 88.4 µM, the GI50 (M14 melanoma) was 29.7 µM and the TGI (M14 melanoma) was > 100 µM. The GI50 (SK-MEL-28 melanoma) was 32 µM, the TGI (SK-MEL-28 melanoma) was > 100 µM and the GI50 (LOX IMVI melanoma) was 30.6 µM. The TGI (LOX IMVI melanoma) was > 100 µM, the GI50 (COLO 205 colon) was 18.8 µM and the TGI (COLO 205 colon) was 53.9 µM. It also gave a GI50 (SNB-75 CNS) of 15.2 µM, a TGI (SNB-75 CNS) of 74.4 µM and a GI50 (OVCAR-3 ovarian) of 27.4 µM. For the same compound, the TGI (OVCAR-3 ovarian) was > 100 µM, the GI50 (CAKI-1 renal) was 14.8 µM and the TGI (CAKI-1 renal) was 57.9 µM. The GI50 (HOP-92 NSCLC) was 48.6 µM, the TGI (HOP-92 NSCLC) was > 100 µM and the GI50 (EKVX NSCLC) was 54.2 µM. The TGI (EKVX NSCLC) was > 100 µM, the GI50 (HS 578T breast) was 52.7 µM and the TGI (HS 578T breast) was > 100 µM. For the same compound, the GI50 (OVCAR-5 ovarian) was > 100 µM, the TGI (OVCAR-5 ovarian) was > 100 µM and the GI50 (NCI-H522 lung) was 27.6 µM. For the same compound, the TGI (NCI-H522 lung) was > 100 µM, the GI50 (UO-31 renal) was 58.1 µM and the TGI (UO-31 renal) was > 100 µM. The GI50 (SR leukemia) was 15.4 µM, the TGI (SR leukemia) was 48.8 µM and the GI50 (PC-3 prostate) was 19.8 µM. The TGI (PC-3 prostate) was > 100 µM, the GI50 (ACHN renal) was 30.2 µM and the TGI (ACHN renal) was > 100 µM. For the same compound, the GI50 (NCI-H226 lung) was > 100 µM and the TGI (NCI-H226 lung) was > 100 µM.
